3 compounds from patent US10526352B2, “Tricyclic benzoxaborole compounds and uses thereof” (GlaxoSmithKline Intellectual Property (No.2) Limited, priority 2013, dated 2020) can be followed below.

In the assay the test system is M. tuberculosis clinical isolates. Briefly: MIC against clinical strains (BACTEC MGIT 960 System). Type of assay: cell-based. Particulars: Mycobacterium tuberculosis.
[1] abbreviates: strain 123, resistant clinical isolate, resistance HSERZKTACp.
Where [2] appears, read: strain 139, resistant clinical isolate, resistance HSERZKTACp.
The mark [3] stands for this setting: strain 141, resistant clinical isolate, resistance HRT.
Where [4] appears, read: strain 167, resistant clinical isolate, resistance HSRZ.
[5] abbreviates: strain 175, resistant clinical isolate, resistance S.
[6] abbreviates: strain 198, resistant clinical isolate, resistance H.
Setting [7] is: strain 242, resistant clinical isolate, resistance H.
Setting [8] is: strain 330, resistant clinical isolate, resistance HSR (Tables 2B, 2D).
The mark [9] stands for this setting: strain 1672, resistant clinical isolate, resistance HSRZ.
[10] abbreviates: strain 1819, resistant clinical isolate, resistance HSRZ.

Molecules are shown by their SMILES.

Broadly, the MIC is the lowest concentration that inhibits growth of the organism. High values mean weaker potency, low ones greater potency.

For `Cl.NC[C@H]1OB2OCCOc3ccc(Br)c1c32` [Example 2, (S)-(3-bromo-7,8-dihydro-2H-1,6,9-trioxa-9a-borabenzo[cd]azulen-2-yl)methanamine hydrochloride], the MIC by setting is: under setting [1], 0.08 µM; under setting [2], 0.08 µM; under setting [3], 0.08 µM; under setting [4], 0.08 µM; under setting [5], 0.08 µM; under setting [6], 0.08 µM. In addition, the MIC by setting is: under setting [7], 0.08 µM; under setting [8], 0.08 µM; under setting [9], 0.08 µM; under setting [10], 0.04 µM.
For the compound `Cl.NC[C@H]1OB2OCCOc3ccc(Cl)c1c32` [Example 4, (S)-(3-chloro-7,8-dihydro-2H-1,6,9-trioxa-9a-borabenzo[cd]azulen-2-yl)methanamine hydrochloride], the MIC by setting is: (strain 106, resistant clinical isolate, resistance HR) 0.16 µM; under setting [1], 0.16 µM; under setting [2], 0.08 µM; under setting [3], 0.08 µM; under setting [4], 0.08 µM; under setting [5], 0.08 µM. The MIC by setting is: (strain 192, resistant clinical isolate, resistance HS) 0.31 µM; under setting [6], 0.08 µM; (strain 201, resistant clinical isolate, resistance HRE) 0.08 µM; (strain 202, resistant clinical isolate, resistance S) 0.08 µM; under setting [7], 0.08 µM; (strain 254, resistant clinical isolate, resistance H) 0.16 µM. The MIC runs as follows: (strain 277, resistant clinical isolate, resistance H) 0.08 µM; (strain 297, resistant clinical isolate, resistance HSR) 0.16 µM; (strain 330, resistant clinical isolate, resistance HS) 0.08 µM; under setting [8], 0.08 µM; (strain 330, resistant clinical isolate, resistance RSR) 0.04 µM; (strain 409, resistant clinical isolate, resistance HR) 0.08 µM. Besides, the MIC runs as follows: (strain 415, resistant clinical isolate, resistance HRT) 0.08 µM; (strain 514, resistant clinical isolate, resistance HSRT) 0.08 µM; (strain 562, resistant clinical isolate, resistance HSERZKTA) 0.08 µM; (strain 605, resistant clinical isolate, resistance HSERZACp) 0.16 µM; (strain 670, resistant clinical isolate, resistance HRZ) 0.04 µM; (strain 709, resistant clinical isolate, resistance S) 0.08 µM. Also, the MIC by setting is: (strain 732, resistant clinical isolate, resistance S) 0.08 µM; under setting [9], 0.08 µM; under setting [10], at most 0.02 µM; (strain CR, resistant clinical isolate, resistance HSERZ) 0.31 µM.
The compound `NC[C@H]1OB2OCCOc3ccc(Cl)c1c32` [Example G4-Cl] came in with an MIC (for more than 85 clinical isolate strains of 97 tested (sensitive and resistant)) of under 1 µM.
